From US20230227449A1, “AMIDOPYRIMIDONE DERIVATIVES” (Hoffmann-La Roche Inc., priority 2020, published 2023) come the findings set out here.

Where only a bound is given, the exact number is not on record here.

Chain of Recombinant human Mat2a (P31153 whole entry): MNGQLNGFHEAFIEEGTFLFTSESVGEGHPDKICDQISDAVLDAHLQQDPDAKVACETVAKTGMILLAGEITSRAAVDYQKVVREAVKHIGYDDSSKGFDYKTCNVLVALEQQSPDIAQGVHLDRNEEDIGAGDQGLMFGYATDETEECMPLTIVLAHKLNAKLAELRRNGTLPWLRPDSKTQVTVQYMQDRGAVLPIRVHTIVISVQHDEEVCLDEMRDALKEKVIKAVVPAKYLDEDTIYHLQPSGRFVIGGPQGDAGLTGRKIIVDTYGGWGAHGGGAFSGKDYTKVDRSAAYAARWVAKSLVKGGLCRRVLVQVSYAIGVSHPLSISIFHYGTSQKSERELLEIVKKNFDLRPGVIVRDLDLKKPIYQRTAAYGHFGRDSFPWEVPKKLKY

The test addresses Recombinant human Mat2a (Homo sapiens, UniProt P31153). Kind of test: Determination of Mat2A activity (384 well absorbance-based assay, Biomol Green). Type of test: biochemical. The following applies: 12.5 nM Mat2A, 100 μM ATP and Methionine, 2% DMSO, 120 minutes at RT, absorbance at 635 nm. On the procedure:
Determination of Mat2A activity
Measurement of Mat2A inhibition is performed in 384 well format absorbance-based assay. Recombinant human Mat2a (12.5 nM) and serial diluted compounds in DMSO (range of concentrations from […] to 508 pM) or controls (DMSO) are incubated for 15 minutes at room temperature (RT) in assay buffer containing 50 mM HEPES pH 7.5, 50 mM KCl, 50 mM MgCl2, 0.01% Tween 20 and 10 mM DTT. The reaction is initiated by the addition of the combined substrates ATP and Methionine, each at a final concentration of 100 μM. Final assay condition are 12.5 nM Mat2A, 100 μM ATP and Methionine Substrates and 2% DMSO. After 120 minutes of incubation at RT, the reaction is stopped by the addition of Biomol Green. The absorbance signal is measured at λ=635 nm with a multiplate reader (BMG Pherastar reader or equivalent) after 30 min of equilibration at RT.
As to `Nc1nc(=O)n(C2CCOC2)c2nc(C3CC3)ccc12` (stereo not drawn) [Example 6, 4-amino-7-cyclopropyl-1-(tetrahydrofuran-3-yl)pyrido[2,3-d]pyrimidin-2(1H)-one], the IC50 was 0.028 µM.

As to `Cc1ncccc1-n1c(=O)nc(N)c2ccc(C(C)(C)F)cc21` [Example 58, 4-amino-7-(2-fluoropropan-2-yl)-1-(2-methylpyridin-3-yl)quinazolin-2-one], the IC50 is 0.022 µM.

`Cc1ncncc1-n1c(=O)nc(N)c2ccc(C3CCCC3)nc21` [Example 55, 4-amino-7-cyclopentyl-1-(4-methylpyrimidin-5-yl)pyrido[2,3-d]pyrimidin-2-one]: the IC50 was determined as 0.017 µM.

In the case of `CC(c1ccccn1)n1c(=O)nc(N)c2ccc(C3CC3)nc21` (stereo not drawn) [Example 82, 4-amino-7-cyclopropyl-1-(1-pyridin-2-ylethyl)pyrido[2,3-d]pyrimidin-2-one], the 50% inhibitory concentration (IC50) was found to be 0.036 µM.

In the case of `Cc1cccc(-n2c(=O)nc(N)c3ccc(C4CC4)nc32)c1Cl` [Example 130, 4-amino-1-(2-chloro-3-methylphenyl)-7-cyclopropylpyrido[2,3-d]pyrimidin-2-one], the IC50 is under 0.013 µM.

`Nc1nc(=O)n(-c2cccc3c2CCO3)c2nc(C(F)(F)F)ccc12` [Example 162, 4-amino-1-(2,3-dihydrobenzofuran-4-yl)-7-(trifluoromethyl)pyrido[2,3-d]pyrimidin-2 (1H)-one]: the half-inhibitory concentration (IC50) is under 0.013 µM.

Turning to `Nc1nc(=O)n([C@H]2CCC[C@H]2O)c2nc(C3CC3)ccc12` (racemic) [Example 24, 4-amino-7-cyclopropyl-1-((1SR,2RS)-2-hydroxycyclopentyl)pyrido[2,3-d]pyrimidin-2(1H)-one], the IC50 is 0.017 µM.

With `Nc1nc(=O)n(-c2cccnc2Cl)c2nc(C3CC3)ccc12` (single isomer, unassigned) [Example 136, (−)-4-amino-1-(2-chloropyridin-3-yl)-7-cyclopropylpyrido[2,3-d]pyrimidin-2 (1H)-one], the IC50 was 0.15 µM.

As to `Nc1nc(=O)n(-c2cccc(OC(F)F)n2)c2nc(C3CC3)ccc12` [Example 108, 4-amino-7-cyclopropyl-1-(6-(difluoromethoxy)pyridin-2-yl)pyrido[2,3-d]pyrimidin-2 (1H)-one], the IC50 is under 0.013 µM.

Consider `Nc1nc(=O)n(-c2ccccc2OC(F)(F)F)c2nc(C3CC3)ccc12` [Example 110, 4-amino-7-cyclopropyl-1-[2-(trifluoromethoxy)phenyl]pyrido[2,3-d]pyrimidin-2-one], for which the half-maximal inhibitory concentration (IC50) was under 0.013 µM.

`Cc1ncccc1-n1c(=O)nc(N)c2ccc(C3COC3)cc21` [Example 22, 4-amino-1-(2-methylpyridin-3-yl)-7-(oxetan-3-yl)quinazolin-2(1H)-one]: the IC50 came to 0.021 µM.

Take `Nc1nc(=O)n(-c2cccc3c2CCO3)c2cc(C3CC3)ccc12` [Example 45, 4-amino-7-cyclopropyl-1-(2,3-dihydrobenzofuran-4-yl)quinazolin-2(1H)-one]: the IC50 was under 0.013 µM.

`Nc1nc(=O)n(C2CCn3cncc32)c2nc(C3CC3)ccc12` (stereo not drawn) [Example 112, 4-amino-7-cyclopropyl-1-(6,7-dihydro-5H-pyrrolo[1,2-c]imidazol-7-yl)pyrido[2,3-d]pyrimidin-2-one]: the IC50 came to 0.039 µM.

For `C[C@H](c1cnco1)n1c(=O)nc(N)c2ccc(C3CC3)nc21` [Example 75, 4-amino-7-cyclopropyl-1-(1-(oxazol-5-yl)ethyl)pyrido[2,3-d]pyrimidin-2(1H)-one], the IC50 came out at 0.099 µM.

Regarding `Cc1cccc(-n2c(=O)nc(N)c3ccc(C4CC4)nc32)c1` [Example 69, 4-amino-7-cyclopropyl-1-(m-tolyl)pyrido[2,3-d]pyrimidin-2(1H)-one], the IC50 is under 0.013 µM.

With `Cc1ncccc1-n1c(=O)nc(N)c2ccc(C3CCOC3)nc21` (stereo not drawn) [Example 93, 4-amino-1-(2-methylpyridin-3-yl)-7-(tetrahydrofuran-3-yl)pyrido[2,3-d]pyrimidin-2 (1H)-one], the IC50 is 0.027 µM.

As to `Cc1ccccc1-n1c(=O)nc(N)c2c(C#N)cc(C3CC3)nc21` [Example 95, 4-amino-7-cyclopropyl-2-oxo-1-(o-tolyl)-1,2-dihydropyrido[2,3-d]pyrimidine-5-carbonitrile], the IC50 was 0.022 µM.

For the compound `Cc1ncccc1-n1c(=O)nc(N)c2ccc([C@H]3C[C@@H]3F)nc21` (racemic) [Example 36, 4-amino-7-[(1RS,2SR)-2-fluorocyclopropyl]-1-(2-methyl-3-pyridyl)pyrido[2,3-d]pyrimidin-2-one], the IC50 is under 0.013 µM.

Take `Nc1nc(=O)c(-c2ccccc2Cl)c2cc(C(F)(F)F)ccn12` [Example 149, 1-amino-4-(2-chlorophenyl)-6-(trifluoromethyl)pyrido[1,2-c]pyrimidin-3-one]: the IC50 worked out at 0.024 µM.

Regarding `CC(C1COC1)n1c(=O)nc(N)c2ccc(C3CC3)nc21` (stereo not drawn) [Example 81, 4-amino-7-cyclopropyl-1-[1-(oxetan-3-yl)ethyl]pyrido[2,3-d]pyrimidin-2-one], the concentration for half-maximal inhibition (IC50) amounted to 0.042 µM.

As to `Nc1nc(=O)n(-c2cccnc2C(F)(F)F)c2nc(C3CC3)ccc12` [Example 43, 4-amino-7-cyclopropyl-1-(2-(trifluoromethyl)pyridin-3-yl)pyrido[2,3-d]pyrimidin-2(1H)-one], the IC50 is under 0.013 µM.

With `Cc1ncncc1-n1c(=O)nc(N)c2ccc(C3CC3)nc21` [Example 42, 4-amino-7-cyclopropyl-1-(4-methylpyrimidin-5-yl)pyrido[2,3-d]pyrimidin-2(1H)-one], the IC50 is under 0.013 µM.

As to `Cc1ccccc1-n1c(=O)nc(N)c2ccc(N3CC(F)(F)C3)nc21` [Example 5, 4-amino-7-(3,3-difluoroazetidin-1-yl)-1-(o-tolyl)pyrido[2,3-d]pyrimidin-2(1H)-one], the IC50 stood at 0.022 µM.

Regarding `Nc1nc(=O)n(-c2cccc(Cl)c2)c2nc(C3CC3)ccc12` [Example 152, 4-amino-1-(3-chlorophenyl)-7-cyclopropylpyrido[2,3-d]pyrimidin-2 (1H)-one], the 50% inhibitory concentration (IC50) worked out at 0.014 µM.

As to `Nc1nc(=O)n(-c2cccc(F)c2)c2nc(C3CC3)ccc12` [Example 80, 4-amino-7-cyclopropyl-1-(3-fluorophenyl)pyrido[2,3-d]pyrimidin-2(1H)-one], the IC50 is under 0.013 µM.

Take `Nc1nc(=O)n(-c2cccnc2Cl)c2cc(OC(F)F)ccc12` [Example 137, 4-amino-1-(2-chloropyridin-3-yl)-7-(difluoromethoxy)quinazolin-2 (1H)-one]: the IC50 is under 0.013 µM.

`Cc1ncccc1-n1c(=O)nc(N)c2c(Cl)cc(C(F)(F)F)cc21` [Example 87, 4-amino-5-chloro-1-(2-methylpyridin-3-yl)-7-(trifluoromethyl)quinazolin-2(1H)-one]: the IC50 stood at 0.02 µM.

For the compound `Cc1ncccc1-n1c(=O)nc(O)c2ccc(C3CC3)cc21` [Example 98, 7-cyclopropyl-1-(2-methylpyridin-3-yl)quinazoline-2,4-dione], the IC50 was found to be 0.2 µM.

As for `Cc1c(F)cccc1-n1c(=O)nc(N)c2ccc(OC(F)F)cc21` [Example 122, 4-amino-7-(difluoromethoxy)-1-(3-fluoro-2-methylphenyl)quinazolin-2 (1H)-one], the IC50 is under 0.013 µM.

As for `Cc1ccccc1-n1c(=O)[nH]c(=O)c2ccc(C3CC3)cc21` [Example 100, 7-cyclopropyl-1-(2-methylphenyl)quinazoline-2,4-dione], the concentration for half-maximal inhibition (IC50) worked out at 0.35 µM.

Regarding `Cc1ccccc1-n1c(=O)nc(N)c2ccc(C(C)(C)C)nc21` [Example 3, 4-amino-7-(tert-butyl)-1-(o-tolyl)pyrido[2,3-d]pyrimidin-2(1H)-one], the IC50 was 0.022 µM.

As to `CCn1nccc1-n1c(=O)nc(N)c2ccc(C3CC3)nc21` [Example 61, 4-amino-7-cyclopropyl-1-(1-ethyl-1H-pyrazol-5-yl)pyrido[2,3-d]pyrimidin-2(1H)-one], the IC50 is under 0.013 µM.

For `Cc1c(F)cccc1-n1c(=O)nc(N)c2ccc(C3CC3)nc21` (single isomer, unassigned) [Example 104, (−)-4-amino-7-cyclopropyl-1-(3-fluoro-2-methylphenyl)pyrido[2,3-d]pyrimidin-2 (1H)-one], the IC50 was found to be 0.11 µM.

`COc1ccccc1-n1c(=O)nc(N)c2ccc(-c3ccccc3)nc21` [Example 4, 4-amino-1-(2-methoxyphenyl)-7-phenylpyrido[2,3-d]pyrimidin-2(1H)-one]: the 50% inhibitory concentration (IC50) came to 0.031 µM.

For the compound `Cc1ncsc1-n1c(=O)nc(N)c2ccc(N3C4CCC3CC4)nc21` [Example 90, 4-amino-7-(7-azabicyclo[2.2.1]heptan-7-yl)-1-(4-methylthiazol-5-yl)pyrido[2,3-d]pyrimidin-2-one], the IC50 was 0.013 µM.

Take `Cc1c(F)cccc1-n1c(=O)nc(N)c2ccc(C3CC3)nc21` (single isomer, unassigned) [Example 103, (+)-4-amino-7-cyclopropyl-1-(3-fluoro-2-methylphenyl)pyrido[2,3-d]pyrimidin-2 (1H)-one]: the IC50 was under 0.013 µM.

Take `Cc1ccccc1-n1c(=O)nc(N)c2cnc(C3CC3)nc21` [Example 96, 4-amino-7-cyclopropyl-1-(o-tolyl)pyrimido[4,5-d]pyrimidin-2 (1H)-one]: the IC50 is under 0.013 µM.

Turning to `Cc1ncccc1-n1c(=O)nc(N)c2ccc(C3CC3)cc21` [Example 86, 4-amino-7-cyclopropyl-1-(2-methylpyridin-3-yl)quinazolin-2 (1H)-one], the concentration for half-maximal inhibition (IC50) was under 0.013 µM.

As to `Cc1ncoc1-n1c(=O)nc(N)c2ccc(C3CC3)nc21` [Example 50, 4-amino-7-cyclopropyl-1-(4-methyloxazol-5-yl)pyrido[2,3-d]pyrimidin-2-one], the IC50 was 0.019 µM.
